Experiment [1] has as its system Human mast cell line LAD cells. Nature of the experiment: Degranulation test using human mast cell line LAD cells. In kind it is cell-based. Particulars: IgE-sensitized LAD cells, anti-human IgE stimulation, β-hexosaminidase release, read-out: degranulation inhibitory activity IC50. The procedure: Human mast cell line LAD cells were sensitized with human IgE (Cosmo Bio; final concentration 1 μg/ml) overnight. The cells were harvested, and then washed with PBS (Invitrogen) and washed again with Tyrode's buffer solution (Sigma) containing 0.1% BSA (Sigma). The cells were seeded into a 96-well plate at 10^5 cells/well and then the compound (0.1% final concentration DMSO solution) was added, followed by incubation at 37° C. for 15 minutes. Rabbit anti-human IgE (Dako Japan; final concentration 10 μg/ml) or control Ig (Dako Japan; final concentration 10 μg/ml) was added, followed by incubation at 37° C. for 30 minutes. The supernatant was recovered and p-nitrophenyl-2-acetamido-2-deoxy-β-D-glucopyranoside (Sigma; final concentration 4 mM), a substrate of β-hexosaminidase which is an index of degranulation, was added, followed by incubation at 37° C. for 45 minutes. Glycine (Wako; final concentration 0.2 M, pH 10.4) was added and the reaction was terminated. Then, the absorbance at 405 nm was measured.
The inhibition rate (%) was calculated as (anti-IgE antibody degranulation rate—compound-added group degranulation rate)/(anti-IgE antibody degranulation rate—control antibody degranulation rate)×100. The IC50 value was calculated from the inhibition rate at each concentration and used as an index of inhibitory activity.

Experiment [2] concerns the target T1, Syk (Homo sapiens, UniProt P43405).
T1 construct: purchased Wako Pure Chemical Industries
The experiment is described as follows: Syk inhibition test. Particulars: poly(L-glu-L-tyr) substrate, ATP 5 μM, [γ-33P]ATP, 30 minutes room temperature; read-out: Syk inhibitory activity IC50. The format is biochemical. As to the method: 10 ng/10 μl/well of a Syk (Wako Pure Chemical Industries) solution, 15 μl of a poly(L-glu-L-tyr) substrate peptide solution (Sigma, final concentration 5 μM), 20 μl of an ATP mixture (ATP: Oriental Yeast, final concentration 5 μM, [γ-33P]ATP: GE Healthcare Biosciences, 0.1 μCi/well) and 5 μl of a test substance solution were added to a 96-well Corning reaction plate, followed by incubation at room temperature for 30 minutes. An assay buffer containing 50 mM Tris pH 7.5, 10 mM MgCl2, 0.1 mM Na3VO4, 1 mM DTT, 0.01% CHAPS and 100 μg/ml BSA was used. The test substance solution was made by dissolving the test substance in DMSO at each concentration. The final concentration of DMSO was 1%. The reaction was terminated by adding 100 μl of a 120 mM phosphoric acid solution as a reaction terminator. Then, the total reaction solution was transferred to MultiScreen (Millipore) and washed with 200 μl of 100 mM phosphoric acid four times.
After drying, 20 μl of MicroScint-O (PerkinElmer) was added and the radioactivity was measured by TopCount (PerkinElmer). The ratio of the radioactivity when the test substance was added to the radioactivity when the test substance was not added was determined. The IC50 value was calculated from the inhibition rate at each concentration and used as an index of inhibitory activity.

The target in experiment [3] is T2, Abl (Homo sapiens, UniProt P00519).
T2 construct: purchased Wako Pure Chemical Industries
The experiment is described as follows: Abl inhibition test. The settings on record: Abltide substrate, ATP 6 μM, [γ-33P]ATP, 40 minutes room temperature; read-out: Abl inhibitory activity IC50. The format is biochemical. As to the method:
5 ng/5 μl/well of an Abl (Wako Pure Chemical Industries) solution, 30 μl of an Abltide substrate peptide solution (Wako Pure Chemical Industries; final concentration 5 μM) and 5 μl of a test substance solution were added to a 96-well plate (Corning), followed by incubation at room temperature for 15 minutes. Then, 10 μl of an ATP mixture (ATP: Oriental Yeast, final concentration 6 μM, [γ-33P]ATP: GE Healthcare Biosciences, 0.06 μCi/well, MgAcetate: Cosmo Bio, final concentration 10 mM) was added, followed by incubation at room temperature for 40 minutes. The Abl solution was prepared using a kinase buffer (20 mM MOPS pH 7.0, 1 mM EDTA, 0.1% β-mercaptoethanol, 0.01% Brij-35, 5% glycerol, 1 mg/ml BSA). The substrate peptide solution and the ATP mixture were prepared using 8 mM MOPS pH 7.0 and 0.2 mM
EDTA. The test substance solution was made by dissolving the test substance in DMSO at each concentration. The final concentration of DMSO was 1%. The reaction was terminated by adding 100 μl of a 100 mM phosphoric acid solution as a reaction terminator. Then, the total reaction solution was transferred to a 96-well MultiScreen plate (Millipore) and washed with 200 μl of 100 mM phosphoric acid three times. After drying, 20 μl of MicroScint-O (PerkinElmer) was added and the radioactivity was measured by TopCount (PerkinElmer). After subtracting the radioactivity in the well to which the Abltide substrate peptide was not added from each radioactivity, the ratio of the radioactivity when the test substance was added to the radioactivity when the test substance was not added was determined. The IC50 value was calculated from the inhibition rate at each concentration and used as an index of inhibitory activity.

Molecules are shown by their SMILES.

T2 sequence (P00519 whole entry, species assumed): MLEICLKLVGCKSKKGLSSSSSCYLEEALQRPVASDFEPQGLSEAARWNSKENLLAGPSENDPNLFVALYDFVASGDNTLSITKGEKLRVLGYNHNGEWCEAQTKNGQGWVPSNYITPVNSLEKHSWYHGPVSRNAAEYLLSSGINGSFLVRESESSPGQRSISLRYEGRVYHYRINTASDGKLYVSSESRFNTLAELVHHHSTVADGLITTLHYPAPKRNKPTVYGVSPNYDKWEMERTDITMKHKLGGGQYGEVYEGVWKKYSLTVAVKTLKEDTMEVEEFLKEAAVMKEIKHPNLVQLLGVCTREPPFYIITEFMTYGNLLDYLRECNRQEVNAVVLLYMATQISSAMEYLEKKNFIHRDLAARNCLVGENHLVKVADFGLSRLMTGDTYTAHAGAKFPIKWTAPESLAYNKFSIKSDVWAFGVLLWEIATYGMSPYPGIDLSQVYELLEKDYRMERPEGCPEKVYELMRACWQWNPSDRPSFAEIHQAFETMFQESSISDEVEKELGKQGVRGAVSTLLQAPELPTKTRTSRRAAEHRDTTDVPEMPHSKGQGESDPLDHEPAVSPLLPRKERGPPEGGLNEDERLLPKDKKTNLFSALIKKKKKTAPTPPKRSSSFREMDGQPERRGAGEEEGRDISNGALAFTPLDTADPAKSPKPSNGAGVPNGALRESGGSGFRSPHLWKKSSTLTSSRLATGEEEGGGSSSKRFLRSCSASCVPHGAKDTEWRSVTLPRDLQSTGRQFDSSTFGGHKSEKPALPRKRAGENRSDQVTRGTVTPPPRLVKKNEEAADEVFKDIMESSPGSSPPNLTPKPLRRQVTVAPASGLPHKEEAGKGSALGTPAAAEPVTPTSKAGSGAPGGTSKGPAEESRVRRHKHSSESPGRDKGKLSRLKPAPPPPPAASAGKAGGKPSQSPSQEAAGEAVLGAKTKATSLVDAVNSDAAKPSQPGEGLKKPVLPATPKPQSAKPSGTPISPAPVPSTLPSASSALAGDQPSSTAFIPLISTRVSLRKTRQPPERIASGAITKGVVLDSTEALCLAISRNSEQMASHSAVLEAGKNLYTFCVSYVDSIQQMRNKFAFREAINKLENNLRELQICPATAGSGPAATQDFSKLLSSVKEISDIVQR

`CS(=O)(=O)c1n[nH]c2nc(Nc3ccc(N4CCC(=O)CC4)cc3)nc(NC3CC3)c12` [Compound 88]: in experiment [1], the IC50 was at most 100 nM. For the compound `CS(=O)(=O)c1n[nH]c2nc(Nc3ccc(N4CCOCC4)cc3)nc(NCCCCN)c12` [Compound 107], the IC50 in experiment [2] is at most 200 nM; in experiment [1], at most 100 nM; in experiment [3], at most 50 nM. With `CNC(=O)COc1cccc(Nc2nc(NC3CC3)c3c(S(C)(=O)=O)n[nH]c3n2)c1` [Compound 150], in experiment [3], the IC50 was at most 50 nM. With `CS(=O)(=O)c1n[nH]c2nc(Nc3ccc(N4CCCC(CO)C4)cc3)nc(NC3CC3)c12` (stereo not shown) [Compound 130], the IC50 in experiment [2] is at most 200 nM; in experiment [1], at most 100 nM; in experiment [3], at most 10 nM. Take `CS(=O)(=O)c1n[nH]c2nc(Nc3ccc(N4CCOCC4)cc3)nc(NC3CCCC3)c12` [Compound 103]: the IC50 in experiment [3] is at most 50 nM. Turning to `CSc1n[nH]c2nc(Nc3ccc(N4CCOCC4)cc3)nc(NC3CC3)c12` [Compound 13, N^4-Cyclopropyl-3-(methylsulfanyl)-N^6-(4-morpholin-4-ylphenyl)-1H-pyrazolo[3,4-d]pyrimidine-4,6-diamine], the IC50 in experiment [1] was at most 100 nM. Regarding `CNCCCCNc1nc(Nc2ccc(N3CCOCC3)cc2)nc2[nH]nc(SC)c12` [Compound 116], the IC50 in experiment [3] is at most 50 nM.

For the compound `CS(=O)(=O)c1n[nH]c2nc(Nc3ccc(N4CCCC(O)C4)cc3)nc(NC3CC3)c12` (stereo not shown) [Compound 78], the IC50 in experiment [3] was at most 10 nM. As to `CNS(=O)(=O)c1ccc(Nc2nc(NC3CC3)c3c(S(C)(=O)=O)n[nH]c3n2)cc1` [Compound 152], in experiment [3], the IC50 is at most 10 nM. Turning to `CN(C)C(=O)C1CCN(c2ccc(Nc3nc(NC4CC4)c4c(S(C)(=O)=O)n[nH]c4n3)cc2)CC1` [Compound 128], the IC50 in experiment [2] was at most 200 nM; in experiment [1], at most 100 nM; in experiment [3] it was at most 50 nM.

`Cc1cc(Nc2nc(NC3CC3)c3c(S(C)(=O)=O)n[nH]c3n2)ccc1N1CCOCC1` [Compound 38]: the IC50 in experiment [3] was at most 50 nM. Take `CS(=O)(=O)c1n[nH]c2nc(Nc3ccc(N4CCC(CO)CC4)cc3)nc(NC3CC3)c12` [Compound 126]: the IC50 in experiment [3] is at most 10 nM.

As to `CCSc1n[nH]c2nc(Nc3ccc(N4CCOCC4)cc3)nc(N[C@H]3CC[C@H](N)CC3)c12` [Compound 115], the IC50 in experiment [2] is at most 200 nM; in experiment [3] it was at most 10 nM. Take `CSc1n[nH]c2nc(Nc3ccc(N4CCOCC4)cc3)nc(Nc3ccc4[nH]c(O)nc4c3)c12` [Compound 208]: in experiment [3], the IC50 was at most 50 nM. For the compound `CS(=O)(=O)c1n[nH]c2nc(Nc3ccc(N4CCOCC4)cc3)nc(Nc3ccccc3C(N)=O)c12` [Compound 188], the IC50 in experiment [3] is at most 50 nM. Regarding `CS(=O)(=O)c1n[nH]c2nc(Nc3ccc(N4CCOCC4)cc3)nc(NCCCC(N)=O)c12` [Compound 60], in experiment [3], the IC50 is at most 50 nM. As for `CS(=O)(=O)c1n[nH]c2nc(Nc3ccc(N4CCCC(C(=O)N5CCOCC5)C4)cc3)nc(NC3CC3)c12` (stereo not shown) [Compound 143], the IC50 in experiment [2] was at most 200 nM; in experiment [1], at most 100 nM; in experiment [3] it was at most 10 nM. `CCN1CCN(c2ccc(Nc3nc(NC4CC4)c4c(S(C)(=O)=O)n[nH]c4n3)cc2)CC1` [Compound 135]: the IC50 in experiment [2] was at most 200 nM; in experiment [1] it was at most 100 nM. As for `CC(C)N1CCN(c2ccc(Nc3nc(NC4CC4)c4c(S(C)(=O)=O)n[nH]c4n3)cc2)CC1` [Compound 138], the IC50 was at most 200 nM in experiment [2] and at most 100 nM in experiment [1]. Turning to `N[C@H]1CC[C@@H](Nc2nc(Nc3ccc(N4CCOCC4)cc3)nc3[nH]ncc23)CC1` [Compound 216, N^4-(cis-4-Aminocyclohexyl)-N^6-(4-morpholinophenyl)-1H-pyrazolo[3,4-d]pyrimidine-4,6-diamine], the IC50 in experiment [3] is at most 10 nM. On to `CS(=O)(=O)c1n[nH]c2nc(Nc3ccc(N4CCOCC4)cc3)nc(N[C@H]3CC[C@@H](N)CC3)c12` [Compound 117, N^4-(cis-4-Aminocyclohexyl)-3-(methylsulfonyl)-N^6-(4-morpholin-4-ylphenyl)-1H-pyrazolo[3,4-d]pyrimidine-4,6-diamine], for which the IC50 in experiment [3] was at most 10 nM. On the same count and under the same terms, as for `CC1CN(C(=O)c2ccc(Nc3nc(NC4CC4)c4c(S(C)(=O)=O)n[nH]c4n3)cc2)CC(C)O1` (stereo not shown) [Compound 240], the figure is at most 50 nM. For `CS(=O)(=O)c1n[nH]c2nc(Nc3ccc4[nH]cnc4c3)nc(NC3CC3)c12` [Compound 21], the IC50 in experiment [3] was at most 50 nM. Take `C[S+]([O-])c1n[nH]c2nc(Nc3ccc(N4CCOCC4)cc3)nc(NC3CC3)c12` (stereo not shown) [Compound 4, N^4-Cyclopropyl-3-(methylsulfinyl)-N^6-(4-morpholin-4-ylphenyl)-1H-pyrazolo[3,4-d]pyrimidine-4,6-diamine]: in experiment [1], the IC50 was at most 100 nM. With `CSc1n[nH]c2nc(Nc3ccc(N4CCOCC4)cc3)nc(Nc3ccc4nc[nH]c4c3)c12` [Compound 192], in experiment [3], the IC50 was at most 50 nM. For the compound `CSc1n[nH]c2nc(Nc3ccc(N4CCOCC4)cc3)nc(NCCCCCN)c12` [Compound 110], the IC50 in experiment [3] is at most 50 nM. Turning to `CC(C)(C)Nc1nc(Nc2ccc(N3CCOCC3)cc2)nc2[nH]nc(S(C)(=O)=O)c12` [Compound 55], the IC50 in experiment [3] is at most 10 nM. Consider `CS(=O)(=O)c1n[nH]c2nc(Nc3ccc(-c4ccc(C(=O)O)cc4)cc3)nc(NC3CC3)c12` [Compound 227], for which the IC50 in experiment [3] is at most 50 nM. Regarding `CSc1n[nH]c2nc(Nc3ccc(N4CCOCC4)cc3)nc(NCCc3c[nH]cn3)c12` [Compound 200], the IC50 in experiment [3] is at most 10 nM. In the case of `CCSc1n[nH]c2nc(Nc3ccc(N4CCOCC4)cc3)nc(NC3CC3)c12` [Compound 108], in experiment [3], the IC50 was at most 50 nM. For `CS(=O)(=O)c1n[nH]c2nc(Nc3ccc(N4CCCC(C(N)=O)C4)cc3)nc(NC3CC3)c12` (stereo not shown) [Compound 132], the IC50 in experiment [3] is at most 10 nM.

As for `CSc1n[nH]c2nc(Nc3ccc(N4CCOCC4)cc3)nc(Nc3ccc4cn[nH]c4c3)c12` [Compound 206], the IC50 in experiment [3] is at most 50 nM. For the compound `CS(=O)(=O)c1n[nH]c2nc(Nc3ccc(N4CCN(S(C)(=O)=O)CC4)cc3)nc(NC3CC3)c12` [Compound 146], the 50% inhibitory concentration (IC50) was at most 200 nM in experiment [2] and at most 10 nM in experiment [3]. For `N[C@H]1CC[C@@H](Oc2nc(Nc3ccc(N4CCOCC4)cc3)nc3[nH]ncc23)CC1` [Compound 217, cis-4-(4-Aminocyclohexyloxy)-N-(4-morpholinophenyl)-1H-pyrazolo[3,4-d]pyrimidin-6-amine], in experiment [3], the IC50 is at most 10 nM.

Turning to `CCSc1n[nH]c2nc(Nc3ccc(N4CCOCC4)cc3)nc(NCCCCN)c12` [Compound 114], the half-inhibitory concentration (IC50) is at most 200 nM in experiment [2] and at most 50 nM in experiment [3].

`CC(C)Sc1n[nH]c2nc(Nc3ccc(N4CCOCC4)cc3)nc(N[C@H]3CC[C@@H](N)CC3)c12` [Compound 119]: the IC50 in experiment [3] was at most 10 nM.

The values above are taken from patent publication US20100298557A1, “PYRAZOLOPYRIMIDINE COMPOUND” (Taisho Pharmaceutical Co., Ltd, priority 2006, published 2010).
